# Tested on: SK-MEL-5
# Assay: Growth inhibition of human SK-MEL-5 cells assessed as cell growth at 10^-5 M incubated for 48 hrs by sulforhodamine B assay relative to control
# Assay type: functional
# Conditions: SK-MEL-5, 48 h, read-out: Activity
row,Structure (SMILES),growth at 10 µM [%]
1,c1ccc2[nH]c(-c3ccc(C4NCCc5c4[nH]c4ccccc54)cc3)nc2c1 (stereo not given),96.5

# Tested on: RXF 393
# Assay: Growth inhibition of human RXF393 cells assessed as cell growth at 10^-5 M incubated for 48 hrs by sulforhodamine B assay relative to control
# Assay type: functional
# Conditions: RXF 393, 48 h, read-out: Activity
row,Structure (SMILES),growth at 10 µM [%]
1,c1ccc2[nH]c(-c3ccc(C4NCCc5c4[nH]c4ccccc54)cc3)nc2c1 (stereo not given),94.2

# Tested on: SW-620
# Assay: Growth inhibition of human SW620 cells assessed as cell growth at 10^-5 M incubated for 48 hrs by sulforhodamine B assay relative to control
# Assay type: functional
# Conditions: SW-620, 48 h, read-out: Activity
row,Structure (SMILES),growth at 10 µM [%]
1,c1ccc2[nH]c(-c3ccc(C4NCCc5c4[nH]c4ccccc54)cc3)nc2c1 (stereo not given),99.1

# Tested on: SK-OV-3
# Assay: Growth inhibition of human SKOV3 cells assessed as cell growth at 10^-5 M incubated for 48 hrs by sulforhodamine B assay relative to control
# Assay type: functional
# Conditions: SK-OV-3, 48 h, read-out: Activity
row,Structure (SMILES),growth at 10 µM [%]
1,c1ccc2[nH]c(-c3ccc(C4NCCc5c4[nH]c4ccccc54)cc3)nc2c1 (stereo not given),95.6

# Tested on: SK-MEL-28
# Assay: Growth inhibition of human SK-MEL-28 cells assessed as cell growth at 10^-5 M incubated for 48 hrs by sulforhodamine B assay relative to control
# Assay type: functional
# Conditions: SK-MEL-28, 48 h, read-out: Activity
row,Structure (SMILES),growth at 10 µM [%]
1,c1ccc2[nH]c(-c3ccc(C4NCCc5c4[nH]c4ccccc54)cc3)nc2c1 (stereo not given),102

# Tested on: PC-3
# Assay: Growth inhibition of human PC3 cells assessed as cell growth at 10^-5 M incubated for 48 hrs by sulforhodamine B assay relative to control
# Assay type: functional
# Conditions: PC-3, 48 h, read-out: Activity
row,Structure (SMILES),growth at 10 µM [%]
1,c1ccc2[nH]c(-c3ccc(C4NCCc5c4[nH]c4ccccc54)cc3)nc2c1 (stereo not given),85

# Tested on: NCI-H522
# Assay: Growth inhibition of human NCI-H522 cells assessed as cell growth at 10^-5 M incubated for 48 hrs by sulforhodamine B assay relative to control
# Assay type: functional
# Conditions: NCI-H522, 48 h, read-out: Activity
row,Structure (SMILES),growth at 10 µM [%]
1,c1ccc2[nH]c(-c3ccc(C4NCCc5c4[nH]c4ccccc54)cc3)nc2c1 (stereo not given),83.5

# Tested on: CAKI-1
# Assay: Growth inhibition of human Caki1 cells assessed as cell growth at 10^-5 M incubated for 48 hrs by sulforhodamine B assay relative to control
# Assay type: functional
# Conditions: CAKI-1, 48 h, read-out: Activity
row,Structure (SMILES),growth at 10 µM [%]
1,c1ccc2[nH]c(-c3ccc(C4NCCc5c4[nH]c4ccccc54)cc3)nc2c1 (stereo not given),77.5

# Tested on: A549
# Assay: Growth inhibition of human A549/ATCC cells assessed as cell growth at 10^-5 M incubated for 48 hrs by sulforhodamine B assay relative to control
# Assay type: functional
# Conditions: A549, 48 h, read-out: Activity
row,Structure (SMILES),growth at 10 µM [%]
1,c1ccc2[nH]c(-c3ccc(C4NCCc5c4[nH]c4ccccc54)cc3)nc2c1 (stereo not given),82.9

# Tested on: M14
# Assay: Growth inhibition of human M14 cells assessed as cell growth at 10^-5 M incubated for 48 hrs by sulforhodamine B assay relative to control
# Assay type: functional
# Conditions: M14, 48 h, read-out: Activity
row,Structure (SMILES),growth at 10 µM [%]
1,c1ccc2[nH]c(-c3ccc(C4NCCc5c4[nH]c4ccccc54)cc3)nc2c1 (stereo not given),96.6

# Tested on: KM12
# Assay: Growth inhibition of human KM12 cells assessed as cell growth at 10^-5 M incubated for 48 hrs by sulforhodamine B assay relative to control
# Assay type: functional
# Conditions: KM12, 48 h, read-out: Activity
row,Structure (SMILES),growth at 10 µM [%]
1,c1ccc2[nH]c(-c3ccc(C4NCCc5c4[nH]c4ccccc54)cc3)nc2c1 (stereo not given),103

# Tested on: SNB-19
# Assay: Growth inhibition of human SNB19 cells assessed as cell growth at 10^-5 M incubated for 48 hrs by sulforhodamine B assay relative to control
# Assay type: functional
# Conditions: SNB-19, 48 h, read-out: Activity
row,Structure (SMILES),growth at 10 µM [%]
1,c1ccc2[nH]c(-c3ccc(C4NCCc5c4[nH]c4ccccc54)cc3)nc2c1 (stereo not given),100

# Tested on: SF-268
# Assay: Growth inhibition of human SF268 cells assessed as cell growth at 10^-5 M incubated for 48 hrs by sulforhodamine B assay relative to control
# Assay type: functional
# Conditions: SF-268, 48 h, read-out: Activity
row,Structure (SMILES),growth at 10 µM [%]
1,c1ccc2[nH]c(-c3ccc(C4NCCc5c4[nH]c4ccccc54)cc3)nc2c1 (stereo not given),98.6

# Tested on: HOP-62
# Assay: Growth inhibition of human HOP62 cells assessed as cell growth at 10^-5 M incubated for 48 hrs by sulforhodamine B assay relative to control
# Assay type: functional
# Conditions: HOP-62, 48 h, read-out: Activity
row,Structure (SMILES),growth at 10 µM [%]
1,c1ccc2[nH]c(-c3ccc(C4NCCc5c4[nH]c4ccccc54)cc3)nc2c1 (stereo not given),89

# Tested on: MDA-MB-231
# Assay: Growth inhibition of human MDA-MB-231 cells assessed as cell growth at 10^-5 M incubated for 48 hrs by sulforhodamine B assay relative to control
# Assay type: functional
# Conditions: MDA-MB-231, 48 h, read-out: Activity
row,Structure (SMILES),growth at 10 µM [%]
1,c1ccc2[nH]c(-c3ccc(C4NCCc5c4[nH]c4ccccc54)cc3)nc2c1 (stereo not given),92.2

# Tested on: EKVX
# Assay: Growth inhibition of human EKVX cells assessed as cell growth at 10^-5 M incubated for 48 hrs by sulforhodamine B assay relative to control
# Assay type: functional
# Conditions: read-out: Activity
row,Structure (SMILES),growth at 10 µM [%]
1,c1ccc2[nH]c(-c3ccc(C4NCCc5c4[nH]c4ccccc54)cc3)nc2c1 (stereo not given),103

# Tested on: A498
# Assay: Growth inhibition of human A498 cells assessed as cell growth at 10^-5 M incubated for 48 hrs by sulforhodamine B assay relative to control
# Assay type: functional
# Conditions: A498, 48 h, read-out: Activity
row,Structure (SMILES),growth at 10 µM [%]
1,c1ccc2[nH]c(-c3ccc(C4NCCc5c4[nH]c4ccccc54)cc3)nc2c1 (stereo not given),104

# Tested on: MCF7
# Assay: Growth inhibition of human MCF7 cells assessed as cell growth at 10^-5 M incubated for 48 hrs by sulforhodamine B assay relative to control
# Assay type: functional
# Conditions: MCF7, 48 h, read-out: Activity
row,Structure (SMILES),growth at 10 µM [%]
1,c1ccc2[nH]c(-c3ccc(C4NCCc5c4[nH]c4ccccc54)cc3)nc2c1 (stereo not given),96.7

# Tested on: HCT-116
# Assay: Growth inhibition of human HCT116 cells assessed as cell growth at 10^-5 M incubated for 48 hrs by sulforhodamine B assay relative to control
# Assay type: functional
# Conditions: HCT-116, 48 h, read-out: Activity
row,Structure (SMILES),growth at 10 µM [%]
1,c1ccc2[nH]c(-c3ccc(C4NCCc5c4[nH]c4ccccc54)cc3)nc2c1 (stereo not given),96.1

# Tested on: SF-539
# Assay: Growth inhibition of human SF539 cells assessed as cell growth at 10^-5 M incubated for 48 hrs by sulforhodamine B assay relative to control
# Assay type: functional
# Conditions: SF-539, 48 h, read-out: Activity
row,Structure (SMILES),growth at 10 µM [%]
1,c1ccc2[nH]c(-c3ccc(C4NCCc5c4[nH]c4ccccc54)cc3)nc2c1 (stereo not given),102

# Tested on: SF-295
# Assay: Growth inhibition of human SF295 cells assessed as cell growth at 10^-5 M incubated for 48 hrs by sulforhodamine B assay relative to control
# Assay type: functional
# Conditions: SF-295, 48 h, read-out: Activity
row,Structure (SMILES),growth at 10 µM [%]
1,c1ccc2[nH]c(-c3ccc(C4NCCc5c4[nH]c4ccccc54)cc3)nc2c1 (stereo not given),107

# Tested on: NCI-H460
# Assay: Growth inhibition of human NCI-H460 cells assessed as cell growth at 10^-5 M incubated for 48 hrs by sulforhodamine B assay relative to control
# Assay type: functional
# Conditions: NCI-H460, 48 h, read-out: Activity
row,Structure (SMILES),growth at 10 µM [%]
1,c1ccc2[nH]c(-c3ccc(C4NCCc5c4[nH]c4ccccc54)cc3)nc2c1 (stereo not given),104

# Tested on: OVCAR-8
# Assay: Growth inhibition of human OVCAR8 cells assessed as cell growth at 10^-5 M incubated for 48 hrs by sulforhodamine B assay relative to control
# Assay type: functional
# Conditions: OVCAR-8, 48 h, read-out: Activity
row,Structure (SMILES),growth at 10 µM [%]
1,c1ccc2[nH]c(-c3ccc(C4NCCc5c4[nH]c4ccccc54)cc3)nc2c1 (stereo not given),99.2

# Tested on: SN12C
# Assay: Growth inhibition of human SN12C cells assessed as cell growth at 10^-5 M incubated for 48 hrs by sulforhodamine B assay relative to control
# Assay type: functional
# Conditions: read-out: Activity
row,Structure (SMILES),growth at 10 µM [%]
1,c1ccc2[nH]c(-c3ccc(C4NCCc5c4[nH]c4ccccc54)cc3)nc2c1 (stereo not given),93.8

# Tested on: RPMI-8226
# Assay: Growth inhibition of human RPMI8226 cells assessed as cell growth at 10^-5 M incubated for 48 hrs by sulforhodamine B assay relative to control
# Assay type: functional
# Conditions: RPMI-8226, 48 h, read-out: Activity
row,Structure (SMILES),growth at 10 µM [%]
1,c1ccc2[nH]c(-c3ccc(C4NCCc5c4[nH]c4ccccc54)cc3)nc2c1 (stereo not given),97.3
